Experimental findings from patent US20060049052A1, “Ampholytic buffer having high buffering capacity and high conductivity in isoelectric form” (The Texas A&M University System, priority 2004, published 2006) are described below.

Series [1] can be described thus: Conductivity, pH and buffering capacity of 50 mM solutions of ampholytic buffers. It is filed as physicochemical. Conditions: 50 mM solution. Here is the method:
The conductivities, pH values and buffering capacities of 50 mM solutions of some of the ampholytic buffers of the present invention are listed in Table 1. For comparison purposes, values for histidine (HIS), a widely used low conductivity ampholytic buffer are also included.

Series [2] is described as follows: pH of concentrated aqueous solution of the isoelectric buffer after desalting in IET apparatus (equal to pI). In kind it is physicochemical. Conditions: isoelectric state after IET desalting. From the text: The aqueous solution was desalted and the ampholytic buffer brought to isoelectric state in an IET apparatus. The pH of the concentrated aqueous solution of isoelectric BCPDEAH was 3.8, equal to its pI value. After liophylization, the solid product was characterized by ^1H- and ^13C-NMR. […] The identity and purity of the final product were further confirmed by high resolution ESI-MS. Only signals corresponding to BCPDEAH and its fragment ions are seen.

The conditions of series [3]: indirect UV detection CE, bare fused silica capillary, 15 kV, T=25, UV 214 nm, BGEs of varied pH.
Method: Using a 26 :m I.D. bare fused silica capillary, Lt=26.1 cm, Ld=19.7 cm at 15 kV in positive to negative polarity, T=25 EC, UV detector set at 214 nm, conventional CE was carried out in 20 mM tris(hydroxymethyl) aminomethane (Tris) and 20 mM benzylamine BGEs titrated with pTSA.
Using a 26 :m I.D. bare fused silica capillary, Lt=26.1 cm, Ld=19.7 cm at 15 kV in positive to negative polarity, T=25 EC, and the UV detector set at 214 nm, conventional CE was carried out in 20 mM acetic acid BGEs titrated with imidazole and 20 mM pyridine BGEs titrated with pTSA.

Where a name gives a salt, the structure may show the parent alone.

In series [1], `CC[N+](CC)(CCCC(=O)[O-])CCCC(=O)O` [BCPDEAH, N,N-bis(carboxypropyl)diethyl ammonium hydroxide, inner salt] had a Buffering capacity of 35.7 mM/pH, a Conductivity of 18.4 mS/m and a pH of 4.15. Besides, the “pH of the concentrated aqueous solution of isoelectric form, equal to its pI value” in series [2] was determined as 3.8.
In series [1], `CN(C)CC(CN(C)C)OS(=O)(=O)O` [BDASP, 1,3-bis(N,N-dimethylamino)-2-O-sulfo-propane] showed a Buffering capacity of 25.0 mM/pH, a Conductivity of 25.8 mS/m and a pH of 7.82. In series [3], this compound registered a pI of around 8.0.
On to `CCCN(CCC)CC(CN(CCC)CCC)OS(=O)(=O)O` [BDPSP, 1,3-bis(dipropylamino)-2-O-sulfo-propane], for which the pI in series [3] came to 8.7.
In series [1], `O=S(=O)(O)OC(CN1CCOCC1)CN1CCOCC1` [DMSP, 1,3-dimorpholino-2-O-sulfo-propane] registered a Buffering capacity of 14.7 mM/pH, a Conductivity of 7.3 mS/m and a pH of 5.79. Further, in series [3], the pI amounted to 5.8.
For `O=S(=O)(O)OC(CN1CCCCC1)CN1CCCCC1` [DPSP, 1,3-dipiperidino-2-O-sulfo-propane], in that order: 20.8 mM/pH, 18.1 mS/m, 8.35 and 8.9.
As to `N[C@@H](Cc1c[nH]cn1)C(=O)O` [HIS, histidine, reference compound], in series [1], the Buffering capacity is given as 12.5 mM/pH, the Conductivity was 3.5 mS/m and the pH was 7.44.
